Source: patent publication US9120776B2, “Condensed heterocyclic compound” (Takeda Pharmaceutical Company Limited, priority 2011, dated 2015)
Read-outs that look alike come from different tables or passages of the source.

Legend:
RORγt [1] = biological target: T1, RORγt (Homo sapiens, UniProt P51449); test: Cofactor Recruitment Test (Alpha Screen, biotinylated SRC-1 peptide); format: biochemical; parameters: histidine tag (implied by the Histidine Detection Kit); settings: signal value inhibitory rate at test compound 1 μM
T1 sequence (P51449 1-497 isoform P51449-2): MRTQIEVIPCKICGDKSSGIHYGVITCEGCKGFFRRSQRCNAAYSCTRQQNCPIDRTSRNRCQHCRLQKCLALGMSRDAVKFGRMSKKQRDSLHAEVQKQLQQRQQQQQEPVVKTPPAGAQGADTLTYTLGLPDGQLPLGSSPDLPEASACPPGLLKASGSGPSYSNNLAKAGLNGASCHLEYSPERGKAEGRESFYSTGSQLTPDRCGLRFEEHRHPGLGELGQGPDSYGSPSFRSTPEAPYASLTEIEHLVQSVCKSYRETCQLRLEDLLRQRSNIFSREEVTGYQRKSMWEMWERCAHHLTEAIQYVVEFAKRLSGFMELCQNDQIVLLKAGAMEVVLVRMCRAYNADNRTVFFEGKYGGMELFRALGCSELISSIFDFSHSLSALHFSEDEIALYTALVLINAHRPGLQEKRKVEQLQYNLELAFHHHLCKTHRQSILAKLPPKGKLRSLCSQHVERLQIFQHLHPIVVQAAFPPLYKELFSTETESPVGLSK
Protocol: Cofactor recruitment test was performed by Alpha Screen (Histidine Detection Kit, PerkinElmer) method. First, a test compound diluted with an assay buffer (50 mM Tris-HCl (pH 7.5), 50 mM KCl, 1 mM DTT, 0.1% BSA) was added to a 384 well plate by 5 μL each. […] The mixture was stood in a dark place for 1 hr, and the signal value was measured by Envision (PerkinElmer).

Th17 cells = test: Mouse Th17 Cell Differentiation Test (IL-17A in culture supernatant, ELISA); format: cell-based; settings: inhibitory rate at 10 μM of test compound, mouse CD4 positive naive T cells, 4 days, IL-17A by ELISA; for inhibition at 10 µM: 96 h
Protocol: CD4 positive naive T cells were collected from the spleen cells of BALB/c mice (female, 8-11w, Charles River Laboratories Japan, Inc.) using CD4+CD62L+ T Cell Isolation kit II (Miltenyi Biotec). The CD4 positive naive T cells in a 96 well plate (3×10^5 cells/well) were stimulated (37° C. for culture) with anti-mouse CD3ε antibody (Bio X cell) (10 μg/mL, solid phase) and anti-CD28 antibody (Bio X cell) (5 μg/mL) for 4 days in the presence of anti-IFN-γ antibody (BioLegend), anti-IL-4 antibody (BioLegend), anti-IL-2 antibody (BioLegend), IL-6, TGF-β and IL-23 to differentiate into Th17 cells. The compound was dissolved in DMSO and then added thereto. The cells were cultured under these conditions for 4 days, and differentiation of the Th17 cells was evaluated by using the concentration of IL-17A, which was measured by ELISA, in the culture supernatant obtained by centrifugation.

RORγt [2] = biological target: T1, RORγt; test: Jurkat Reporter Test (human IL-17 ROR response element luciferase, RORγt vector); format: cell-based; settings: read-out: inhibitory rate (%)
Protocol: The Jurkat cells used for the reporter test were cultured in a culture medium (RPMI (Invitrogen), 10% FCS (AusGeneX), 100 U/mL penicillin, 100 μg/mL streptomycin). On the day of the test, 4×10^7 cells were recovered by a centrifugal operation (1000 rpm, 5 min.) and suspended in PBS (phosphate buffered saline) (Invitrogen). Thereafter, the cells were recovered again by a centrifugal operation, and suspended in 2 mL of R buffer (NEON transfection kit, Invitrogen). […] Gene transfer was performed by Electroporation apparatus (NEON, Invitrogen) under the conditions of pulse voltage 1350 V, interval 10 milliseconds, number of times 3. The cells after gene transfer were suspended in 40 mL of a reaction medium (RPMI, 10% Lipid reduced FCS (HyClone), 10 mM HEPES (pH 7.5), 100 U/mL penicillin, 100 μg/mL streptomycin, 5 μM lovastatin), and plated in a 96 well plate by 90 μL each. A test compound diluted with the reaction medium was added by 10 μL each, and the cells were cultured overnight in an incubator. Bright-Glo (Promega) was added by 100 μL each, and the mixture was stirred at room temperature for 10 min, and the luminescence level was measured by Envision (PerkinElmer).

RORγt [3] = biological target: T1, RORγt; test: RORγt Binding Test (TR-FRET, fluorescent-labeled cholesterol); parameters: histidine tag (implied by the Histidine Detection Kit); settings: binding inhibitory rate of fluorescent-labeled cholesterol to RORγt at test compound 1 μM
Protocol: The binding activity of the test compound to RORγt was measured by a time resolved fluorescence resonance energy transfer method (TR-FRET) utilizing histidine-tagged RORγt, fluorescent-labeled cholesterol (BODIPY-cholesterol, AVIVA) and terbium-labeled anti-histidine tag antibody (Invitrogen). First, a test compound diluted with an assay buffer (20 mM Tris-HCl (pH 7.5), 100 mM NaCl, 1 mM DTT, 0.1% BSA) was added to a 384 well plate by 3 μL each. Then, RORγt diluted with an assay buffer to 240 nM was added by 3 μL each, after which fluorescent-labeled cholesterol diluted with the assay buffer to 12 μM was added by 3 μL each, and the mixture was stood at room temperature for 20 min. Thereafter, a terbium-labeled anti-histidine tag antibody diluted with the assay buffer to 8 nM was added by 3 μL each. The mixture was stood at room temperature for 20 min, and fluorescence intensity (excitation wavelength 320 nm, fluorescence wavelength 520 nm, delay time 100 microseconds) was measured by Envision (PerkinElmer).

human PBMC = test: IL17 Production Test in Human PBMC; format: cell-based; settings: 72 h, inhibitory rate at 10 μM of test compound, anti-CD3/CD28 stimulation, 3 days, IL-17A by ELISA
Protocol: Peripheral blood mononuclear cells (PBMC) collected from human peripheral blood by a density gradient centrifugation method were stimulated by Dynabeads (registered trade mark; anti-CD3/CD28 antibody) and cultured at 37° C. for 3 days. The compound was dissolved in DMSO and then added thereto. After culture for 3 days under such conditions, the concentration of IL-17A in the culture supernatant obtained by centrifugation was measured by ELISA to evaluate the effect of the compound on IL-17 production.

[4] = luminescence level inhibitory rate at test compound 3 μM, Jurkat cells

CCn1c2ccccc2c2cc(NC(=O)CSCC(=O)Nc3ccc(C#N)cc3)ccc21 [Example 24, 2-({2-[(4-cyanophenyl)amino]-2-oxoethyl}sulfanyl)-N-(9-ethyl-9H-carbazol-3-yl)acetamide]
inhibition at 1 µM (RORγt [1]): 101% | inhibition at 10 µM (Th17 cells): 96% | inhibition at 3 µM (RORγt [2]; [4]): 100% | inhibition at 1 µM (RORγt [3]): 98.9%

CCn1c2ccccc2c2cc(NC(=O)CC(C)CC(=O)Nc3ccc(C#N)c(Cl)c3)ccc21 (stereo not shown) [Example 25, N-(3-chloro-4-cyanophenyl)-N′-(9-ethyl-9H-carbazol-3-yl)-3-methylpentanediamide]
inhibition at 10 µM (Th17 cells; Mus musculus, CD4 positive): 96.1%

CCn1c2ccccc2c2cc(NC(=O)CC(C)CC(=O)Nc3ccc(C#N)c(Cl)c3)ccc21 (stereo not shown) [Example 26, N-(3-chloro-4-cyanophenyl)-N′-(9-ethyl-9H-carbazol-3-yl)-3-methylpentanediamide]
inhibitory rate (%) (Th17 cells; 10 µM): 96.1%

CCn1c2ccccc2c2cc(NC(=O)CC(CC(=O)Nc3ccc(C#N)c(Cl)c3)c3ccccc3)ccc21 (stereo not shown) [Example 39, N-(3-chloro-4-cyanophenyl)-N′-(9-ethyl-9H-carbazol-3-yl)-3-phenylpentanediamide]
inhibition at 1 µM (RORγt [1]): 102% | inhibition at 3 µM (RORγt [2]; Jurkat): 93.2% | inhibition at 1 µM (RORγt [3]): 91.4%

CCn1c2ccccc2c2cc(NC(=O)CC(C)CCOc3ccc(C#N)c(C)c3)ccc21 (stereo not shown) [Example 44, 5-(4-cyano-3-methylphenoxy)-N-(9-ethyl-9H-carbazol-3-yl)-3-methylpentanamide]
inhibition at 1 µM (RORγt [1]): 98.7% | inhibition at 3 µM (RORγt [2]; [4]): 77.8% | inhibition at 1 µM (RORγt [3]): 62.9%

CCn1c2ccccc2c2cc(NC(=O)CC(C)CC(=O)Nc3ccc(C#N)nc3)ccc21 (stereo not shown) [Example 49, N-(6-cyanopyridin-3-yl)-N′-(9-ethyl-9H-carbazol-3-yl)-3-methylpentanediamide]
inhibition at 1 µM (RORγt [1]): 104% | inhibition at 3 µM (RORγt [2]; [4]): 109% | inhibition at 1 µM (RORγt [3]): 93.9%

CCn1c2ccccc2c2cc(NC(=O)CC(C)CC(=O)Nc3ccc(C#N)c(OC)c3)ccc21 (stereo not shown) [Example 41, N-(4-cyano-3-methoxyphenyl)-N′-(9-ethyl-9H-carbazol-3-yl)-3-methylpentanediamide]
inhibition at 1 µM (RORγt [1]): 100% | inhibition at 3 µM (RORγt [2]; [4]): 96.4% | inhibition at 1 µM (RORγt [3]): 93.4%

CCn1c2ccccc2c2cc(NC(=O)CCC(C)C(=O)Nc3ccc(C#N)c(Cl)c3)ccc21 (stereo not shown) [Example 43, N^1-(3-chloro-4-cyanophenyl)-N^5-(9-ethyl-9H-carbazol-3-yl)-2-methylpentanediamide]
inhibition at 1 µM (RORγt [1]): 102% | inhibition at 3 µM (RORγt [2]; Jurkat): 104% | inhibition at 1 µM (RORγt [3]): 100%

CCn1c2ccccc2c2cc(NC(=O)C(C)CCC(=O)Nc3ccc(C#N)c(Cl)c3)ccc21 (stereo not shown) [Example 42, N^5-(3-chloro-4-cyanophenyl)-N^1-(9-ethyl-9H-carbazol-3-yl)-2-methylpentanediamide]
inhibition at 1 µM (RORγt [1]): 101% | inhibition at 3 µM (RORγt [2]; Jurkat): 104% | inhibition at 1 µM (RORγt [3]): 101%

CCn1c2ccccc2c2cc(NC(=O)CC(C)CC(=O)Nc3ccc(C#N)cc3)ccc21 (stereo not shown) [Step 1 of Example 15, N^1-(4-cyanophenyl)-N^5-(9-ethyl-9H-carbazol-3-yl)-3-methylpentanediamide]
inhibition at 10 µM (Th17 cells): 93.2%

CCn1c2ccccc2c2cc(NC(=O)C[S+]([O-])CC(=O)Nc3ccc(C#N)cc3)ccc21 (stereo not shown) [Example 34, 2-((2-((4-cyanophenyl)amino)-2-oxoethyl)sulfinyl)-N-(9-ethyl-9H-carbazol-3-yl)acetamide]
inhibition at 1 µM (RORγt [1]): 103% | inhibition at 10 µM (Th17 cells): 96.3% | inhibition at 3 µM (RORγt [2]; [4]): 82.7% | inhibition at 1 µM (RORγt [3]): 94.6%

CCn1c2ccccc2c2cc(NC(=O)CC(C)CCOc3ccc(C#N)c(Cl)c3)ccc21 (stereo not shown) [Example 38, 5-(3-chloro-4-cyanophenoxy)-N-(9-ethyl-9H-carbazol-3-yl)-3-methylpentanamide]
inhibition at 1 µM (RORγt [1]): 102% | inhibition at 3 µM (RORγt [2]; [4]): 99.4% | inhibition at 1 µM (RORγt [3]): 91.9%

CCn1c2ccccc2c2cc(NC(=O)C3CCC3C(=O)Nc3ccc(C#N)c(Cl)c3)ccc21 (stereo not shown) [Example 40, N-(3-chloro-4-cyanophenyl)-N′-(9-ethyl-9H-carbazol-3-yl)cyclobutane-1,2-dicarboxamide]
inhibition at 1 µM (RORγt [1]): 102% | inhibition at 3 µM (RORγt [2]; Jurkat): 99.3% | inhibition at 1 µM (RORγt [3]): 96.3%

CCn1c2ccccc2c2cc(NC(=O)CC(C)CC(=O)Nc3ccc(C#N)cn3)ccc21 (stereo not shown) [Example 50, N-(5-cyanopyridin-2-yl)-N′-(9-ethyl-9H-carbazol-3-yl)-3-methylpentanediamide]
inhibition at 1 µM (RORγt [1]): 103% | inhibition at 3 µM (RORγt [2]; [4]): 110% | inhibition at 1 µM (RORγt [3]): 88.8%

CCn1c2ccccc2c2cc(C(=O)NCC(C)CC(=O)Nc3ccc(C#N)c(Cl)c3)ccc21 (stereo not shown) [Example 48, N-{4-[(3-chloro-4-cyanophenyl)amino]-2-methyl-4-oxobutyl}-9-ethyl-9H-carbazole-3-carboxamide]
inhibition at 1 µM (RORγt [1]): 106% | inhibition at 10 µM (Th17 cells; Mus musculus, CD4 positive): 96.9% | inhibition at 10 µM (human PBMC): 97.6% | inhibition at 3 µM (RORγt [2]; Jurkat): 115% | inhibition at 1 µM (RORγt [3]): 104%

CCn1c2ccccc2c2cc(NC(=O)CC(C)CCOc3ccc(C#N)c(C#N)c3)ccc21 (stereo not shown) [Example 55, 5-(3,4-dicyanophenoxy)-N-(9-ethyl-9H-carbazol-3-yl)-3-methylpentanamide]
inhibition at 1 µM (RORγt [1]): 104% | inhibition at 3 µM (RORγt [2]; [4]): 102% | inhibition at 1 µM (RORγt [3]): 82.2%
